Experimental data reported in patent US20100152434A1, “Protein Kinase-binding Nucleosides and Associated Methods” (priority 2007, published 2010).
Like-named read-outs stand apart in the source and are kept apart here.

How the values were obtained:
[1] = tested on: SK-MEL-2
[2] = tested on: OVCAR-5
[3] = tested on: UACC-257
[4] = tested on: KM12; assay: cells; details: Homo sapiens
[5] = tested on: RXF 393; assay: cells; details: Homo sapiens
[6] = tested on: DU-145
[7] = tested on: TK-10; assay: cells; details: Homo sapiens
[8] = tested on: OVCAR-3; assay: cells; details: Homo sapiens
[9] = tested on: MDA-MB-435; assay: cells; details: Homo sapiens
[10] = tested on: MDA-MB-231/ATCC
[11] = tested on: MDA-MB-435; details: MDA-MB-435
[12] = tested on: CCRF-CEM; assay: cells; details: Homo sapiens
[13] = tested on: BT-549
[14] = tested on: U251; assay: cells; details: Homo sapiens
[15] = tested on: HOP-62; details: HOP-62
[16] = tested on: MCF7; assay: cells; details: Homo sapiens
[17] = tested on: MDA-MB-231/ATCC; assay: cells; details: Homo sapiens
[18] = tested on: 60 different human tumor cell lines (the NCI 60); assay: cells; details: read-out: LC50 value for each cell line
[19] = tested on: CCRF-CEM
[20] = tested on: KM12
[21] = tested on: IGROV1; assay: cells; details: Homo sapiens
[22] = tested on: TK-10
[23] = tested on: HOP-92

SMILES: CNC(=O)NC[C@H]1O[C@@H](n2cnc3c(NC(=O)Nc4ccccc4)ncnc32)[C@H](O[Si](C)(C)C(C)(C)C)[C@@H]1CC(=O)N(C)OC [Compound 13, 2′-O-(tert-Butyldimethylsilyl)-3′,5′-dideoxy-3′-[(N-methoxy-N-methylcarboxamido)methyl]-5′-[(N-methylcarbamoyl)amino]-N^6-(N-phenylcarbamoyl)adenosine]
- TGI [1]: 8.31E−5 Molar
- Percent Growth ([1]; Log10 Concentration −4.0): −5%
- Percent Growth ([1]; Log10 Concentration −5.0): 62%
- Percent Growth ([1]; Log10 Concentration −6.0): 92%
- Percent Growth ([1]; Log10 Concentration −7.0): 83%
- Percent Growth ([1]; Log10 Concentration −8.0): 85%
- TGI [2]: >1.00E−4 Molar
- Percent Growth ([2]; Log10 Concentration −4.0): 35%
- Percent Growth ([2]; Log10 Concentration −5.0): 71%
- Percent Growth ([2]; Log10 Concentration −6.0): 92%
- Percent Growth ([2]; Log10 Concentration −7.0): 98%
- Percent Growth ([2]; Log10 Concentration −8.0): 99%
- TGI [3]: >1.00E−4 Molar
- Percent Growth ([3]; Log10 Concentration −4.0): 22%
- Percent Growth ([3]; Log10 Concentration −5.0): 65%
- Percent Growth ([3]; Log10 Concentration −6.0): 102%
- Percent Growth ([3]; Log10 Concentration −7.0): 103%
- Percent Growth ([3]; Log10 Concentration −8.0): 95%
- GI50 ([4]; KM12): 23.9 µM
- CC50 ([4]; KM12, read-out: LC50): > 100 µM
- GI50 ([5]; RXF 393): 9.74 µM
- CC50 ([5]; RXF 393, read-out: LC50): > 100 µM
- TGI [6]: >1.00E−4 Molar
- Percent Growth ([6]; Log10 Concentration −4.0): 16%
- Percent Growth ([6]; Log10 Concentration −5.0): 60%
- Percent Growth ([6]; Log10 Concentration −6.0): 104%
- Percent Growth ([6]; Log10 Concentration −7.0): 112%
- Percent Growth ([6]; Log10 Concentration −8.0): 107%
- GI50 ([7]; TK-10): 20.5 µM
- CC50 ([7]; TK-10, read-out: LC50): > 100 µM
- GI50 ([8]; OVCAR-3): 7.11 µM
- CC50 ([8]; OVCAR-3, read-out: LC50): > 100 µM
- GI50 ([9]; MDA-MB-435): 10.9 µM
- CC50 ([9]; MDA-MB-435, read-out: LC50): > 100 µM
- TGI [10]: >1.00E−4 Molar
- Percent Growth ([10]; Log10 Concentration −4.0): 5%
- Percent Growth ([10]; Log10 Concentration −5.0): 55%
- Percent Growth ([10]; Log10 Concentration −6.0): 94%
- Percent Growth ([10]; Log10 Concentration −7.0): 104%
- Percent Growth ([10]; Log10 Concentration −8.0): 97%
- TGI [11]: >1.00E−4 Molar
- Percent Growth ([11]; Log10 Concentration −4.0): 36%
- Percent Growth ([11]; Log10 Concentration −5.0): 51%
- Percent Growth ([11]; Log10 Concentration −6.0): 98%
- Percent Growth ([11]; Log10 Concentration −7.0): 97%
- Percent Growth ([11]; Log10 Concentration −8.0): 100%
- GI50 [12]: 6.37 µM
- CC50 ([12]; read-out: LC50): > 100 µM
- TGI [13]: >1.00E−4 Molar
- Percent Growth ([13]; Log10 Concentration −4.0): 26%
- Percent Growth ([13]; Log10 Concentration −5.0): 70%
- Percent Growth ([13]; Log10 Concentration −6.0): 96%
- Percent Growth ([13]; Log10 Concentration −7.0): 98%
- Percent Growth ([13]; Log10 Concentration −8.0): 95%
- GI50 ([14]; U-251): 5.66 µM
- CC50 ([14]; U-251, read-out: LC50): > 100 µM
- TGI [15]: >1.00E−4 Molar
- Percent Growth ([15]; Log10 Concentration −4.0): 28%
- Percent Growth ([15]; Log10 Concentration −5.0): 64%
- Percent Growth ([15]; Log10 Concentration −6.0): 86%
- Percent Growth ([15]; Log10 Concentration −7.0): 88%
- Percent Growth ([15]; Log10 Concentration −8.0): 92%
- GI50 ([16]; MCF7): 5.59 µM
- CC50 ([16]; MCF7, read-out: LC50): > 100 µM
- GI50 ([17]; MDA-MB-231): 12.3 µM
- CC50 ([17]; MDA-MB-231, read-out: LC50): > 100 µM
- CC50 [18]: > 100 µM
- TGI [19]: >1.00E−4 Molar
- Percent Growth ([19]; Log10 Concentration −4.0): 23%
- Percent Growth ([19]; Log10 Concentration −5.0): 39%
- Percent Growth ([19]; Log10 Concentration −6.0): 96%
- Percent Growth ([19]; Log10 Concentration −7.0): 100%
- Percent Growth ([19]; Log10 Concentration −8.0): 101%
- TGI [20]: >1.00E−4 Molar
- Percent Growth ([20]; Log10 Concentration −4.0): 30%
- Percent Growth ([20]; Log10 Concentration −5.0): 62%
- Percent Growth ([20]; Log10 Concentration −6.0): 106%
- Percent Growth ([20]; Log10 Concentration −7.0): 108%
- Percent Growth ([20]; Log10 Concentration −8.0): 101%
- GI50 ([21]; IGROV-1): 3.72 µM
- CC50 ([21]; IGROV-1, read-out: LC50): > 100 µM
- TGI [22]: >1.00E−4 Molar
- Percent Growth ([22]; Log10 Concentration −4.0): 17%
- Percent Growth ([22]; Log10 Concentration −5.0): 65%
- Percent Growth ([22]; Log10 Concentration −6.0): 104%
- Percent Growth ([22]; Log10 Concentration −7.0): 106%
- Percent Growth ([22]; Log10 Concentration −8.0): 99%
- TGI [23]: 2.43E−5 Molar
- Percent Growth ([23]; Log10 Concentration −4.0): −43%
- Percent Growth ([23]; Log10 Concentration −5.0): 27%
- Percent Growth ([23]; Log10 Concentration −6.0): 67%
- Percent Growth ([23]; Log10 Concentration −7.0): 93%
- Percent Growth ([23]; Log10 Concentration −8.0): 80%
